T1: truncated squalene synthase (tSqS) (Arabidopsis thaliana, UniProt P53799)
T1 sequence (P53799 1-388 limits assumed): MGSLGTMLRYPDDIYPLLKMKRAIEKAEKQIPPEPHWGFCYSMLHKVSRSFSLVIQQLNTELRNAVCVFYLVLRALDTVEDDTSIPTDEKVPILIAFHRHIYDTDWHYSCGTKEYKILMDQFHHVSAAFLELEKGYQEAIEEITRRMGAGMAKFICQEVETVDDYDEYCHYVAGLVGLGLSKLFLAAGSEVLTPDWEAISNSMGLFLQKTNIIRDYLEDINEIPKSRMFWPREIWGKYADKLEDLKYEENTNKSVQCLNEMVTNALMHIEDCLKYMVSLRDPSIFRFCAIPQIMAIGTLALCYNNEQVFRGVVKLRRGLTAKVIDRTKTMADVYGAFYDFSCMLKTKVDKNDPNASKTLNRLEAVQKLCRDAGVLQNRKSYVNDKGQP

B1: truncated squalene synthase (tSqS) (Arabidopsis thaliana) (protein)
chain: T1 sequence (P53799 1-388 limits assumed)

Columns and labels:
[1] = target: T1, truncated squalene synthase (tSqS); assay: biochemical
From the text: The conversion of the intermediate PSPP into squalene requires magnesium as a cofactor.

[2] = substrate: CC(C)=CCC/C(C)=C/CC/C(C)=C/CO[P@@](=O)(O)OP(=O)(O)O; assay: purified protein, by the assay type; details: other: initial velocity vs FPP concentration, 50 ng tSqS, 100 μM NADPH, 10 mM MgCl2, 37° C., pH 7.5

Row | Molecule | IC50 [1] | Km [2]
1 | O=C(O)CN(CCN(CC(=O)O)CC(=O)O)CC(=O)O [EDTA] | ~8 mM | –
2 | B1 | – | 42 µM

From patent publication US20030157583A1, “Methods for determining squalene synthase activity” (priority 2001, published 2003)
